Type in all cases: cell-based
For assay [1], the system named is secretion levels of IL-6 in PBMC cells. The assay can be described thus: Inhibition of R848-induced IL-6 secretion in PBMC (IL-6 ELISA). The settings on record: human PBMC, 20 h compound pre-incubation, 24 h stimulation. As for the experimental part: This experiment was carried out in RPMI 1640 medium containing 10% FBS/1% penicillin/streptomycin, with each of the compounds at an initial test concentration of 1 μM. The compound DMSO was dissolved to form a stock solution, which was gradiently diluted 4-fold with the culture medium to a 4× working solution concentration. The diluted solution was added to a 96-well plate with 50 μL per well. PBMC (batch No.: HPP20062307, Sichuan Hope Bio-tech Co., Ltd.) cells were counted, and diluted to a concentration of 2×10^6/mL. The diluted cells were added to the above compound-containing 96-well plate with 150 μL per well, fully mixed, and incubated in an incubator with 5% CO2 at 37° C. for 20 h. Then, R848 was further added until a final concentration of […], and the cells were further incubated in the incubator with 5% CO2 at 37° C. for additional 24 h. Then, after centrifugation at 2,000 rpm for 4 min, the supernatant was diluted 110×, and detected using an IL-6 ELISA kit. An OD450 value was read, and converted to an IL-6 concentration based on a standard curve, to calculate an IC50 value by fitting a dose-effect curve using GraphPad 5.0.
For orientation: In an ELISA, binding on a coated surface is turned into a signal by an enzyme label.

The test system is the same in assay [2]. Kind of assay: Inhibition of LPS+IL-1β-induced IL-6 secretion in PBMC (IL-6 ELISA). To be noted: human PBMC, 24 h compound pre-incubation, 20 h stimulation. As for the experimental part: This experiment was carried out in RPMI 1640 medium containing 10% FBS/1% penicillin/streptomycin, with each of the compounds at an initial test concentration of 1 μM. The compound DMSO was dissolved to form a stock solution, which was gradiently diluted 5-fold with the culture medium to a 4× working solution concentration. The diluted solution was added to a 96-well plate with 50 μL per well. PBMC (batch No.: HPP20062307, Sichuan Hope Bio-tech Co., Ltd.) cells were counted, and diluted to a concentration of 2×10^6/mL. The diluted cells were added to the above compound-containing 96-well plate with 150 μL per well, fully mixed, and incubated in an incubator with 5% CO2 at 37° C. for 24 h. Then, LPS and […] were further added to final concentrations of 10 ng/mL and 20 ng/mL, respectively, and the cells were further incubated in the incubator with 5% CO2 at 37° C. for 20 h. Then, after centrifugation at 2,000 rpm for 4 min, the supernatant was diluted 110×, and detected using an IL-6 ELISA kit. An OD450 value was read, and converted to an IL-6 concentration based on a standard curve, to calculate an IC50 value by fitting a dose-effect curve using GraphPad 5.0.

The target in assay [3] is T1, IRAK4 protein (Homo sapiens, UniProt Q9NWZ3).
T1 construct: Effects of Compounds on IRAK4 Protein Degradation in THP1 Cells; endogenous in cells; host or cells: THP-1 cells
T1 sequence (Q9NWZ3 1-460): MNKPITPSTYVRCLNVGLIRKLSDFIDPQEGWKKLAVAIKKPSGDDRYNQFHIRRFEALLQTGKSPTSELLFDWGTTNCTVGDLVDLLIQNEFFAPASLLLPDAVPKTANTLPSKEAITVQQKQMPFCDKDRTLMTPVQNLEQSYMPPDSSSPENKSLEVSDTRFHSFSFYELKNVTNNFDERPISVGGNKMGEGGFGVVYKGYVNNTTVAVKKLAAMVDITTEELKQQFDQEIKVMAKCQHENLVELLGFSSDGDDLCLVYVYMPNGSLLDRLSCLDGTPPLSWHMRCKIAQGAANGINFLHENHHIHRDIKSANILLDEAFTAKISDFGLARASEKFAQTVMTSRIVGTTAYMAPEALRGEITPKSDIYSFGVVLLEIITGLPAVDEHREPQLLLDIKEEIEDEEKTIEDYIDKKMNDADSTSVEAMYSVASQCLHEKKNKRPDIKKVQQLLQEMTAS
The assay can be described thus: IRAK4 protein degradation in THP1 cells (Western blot). To be noted: 24 h. As for the experimental part:
THP-1 cells were inoculated into a 96-well cell culture plate, with 5×10^4 cells and 100 μL of a culture medium per well. The cell culture plate was cultured in an incubator with 5% CO2 at 37° C. overnight. 100 nl of a well-prepared compound stock solution and a compound-free DMSO stock solution were respectively added to cells per well. The cell culture plate was incubated in an incubator with 5% CO2 at 37° C. for 24 h. One protease inhibitor tablet and one phosphatase inhibitor tablet were added to 20 mL of a cell lysis buffer, and they were gently mixed until complete dissolution. DTT at a final concentration of 200 mM was added to a 4× sample preparation buffer to prepare a 4× sample preparation working solution. 20× electrophoretic buffer was diluted to 1× with ultrapure water. 20× transfer buffer was diluted to 1× with ultrapure water, and 20% methanol was added. […] IRAK4 protein primary antibody working solution: 20 μl of IRAK4 antibody added to 20 mL of a blocking solution; β-Actin primary antibody working solution: 2 μl of beta-actin (13E5) Rabbit mAb antibody added to 20 mL of a blocking solution. IRAK4 protein secondary antibody working solution: Donkey Anti-Goat IgG H&L (HRP) diluted 1/5,000 in a blocking solution; 3-Actin secondary antibody working solution: Anti-rabbit IgG, RP-linked antibody diluted 1/10,000 in a blocking solution. The cell culture plate was centrifuged at 3,000 rpm for 3 min, and most of the culture medium was carefully pipetted. The cell plate was inverted, and centrifuged at 300 rpm for 30 s. 45 μL of a lysis buffer was added to each well. The mixture was shaken at 300 rpm for 30 s, allowed to stand on ice for 30 min, and pipetted 30 times at 20 min. 6 μL of 4× sample preparation working solution was added to 18 μL of protein supernatant for sample preparation, and the mixture was heated at 70° C. for 10 min. Remaining protein samples were stored at −80° C. In the precast gel, 8 μl of sample was loaded into each well for electrophoresis at a constant voltage of 120 V for about 60 min, transferred using a PVDF membrane at a constant current of 300 mA for 1 h, then blocked with a blocking solution at room temperature for 1 h, and incubated in a primary antibody working solution at 4° C. overnight. The membrane was washed with 1×TBST buffer for 3×10 min. The secondary antibody working solution was incubated at room temperature for 1 h. The membrane was washed with 1×TBST buffer for 3×10 min, and a chromogenic solution was used for exposure and color development.
For orientation: Immunoblotting shows a protein as a band on a membrane.

As to `Cc1nn(C2CCC(=O)NC2=O)c2cccc(N3CCN(C[C@H]4CC[C@H](n5cc6cc(NC(=O)c7cnn8cccnc78)c(N7C[C@H]8C[C@@H]7CO8)cc6n5)CC4)CC3)c12` (stereo partly shown) [TM-61], the results for the IC50 in assay [1] and in assay [2] were 3.01 nM and 7.06 nM, respectively.
The compound `Cc1nn(C2CCC(=O)NC2=O)c2cccc(N3CC4CN(C[C@H]5CC[C@H](n6cc7cc(NC(=O)c8cnn9cccnc89)c(N(C)C)cc7n6)CC5)CC4C3)c12` (stereo partly shown) [TM-102] registered a DC50 in assay [3] of 0.9 nM. The compound also showed an IC50 in assay [2] of 5.94 nM.
On to `Cc1nn(C2CCC(=O)NC2=O)c2cccc(N3CC4CN(C[C@H]5CC[C@H](N6Cc7cc(NC(=O)c8cnn9cccnc89)c(N8CCOCC8)cc7C6=O)CC5)CC4C3)c12` (stereo partly shown) [TM-59], for which the IC50 in assay [1] was determined as 2.21 nM; in assay [2] it was 3.57 nM.
Turning to `Cc1nn(C2CCC(=O)NC2=O)c2cncc(N3CCC(CN4CCC(n5cc6cc(NC(=O)c7cnn8cccnc78)c(N(C)C)cc6n5)CC4)CC3)c12` (stereo not shown) [TM-106], in assay [3], it took 0.044 nM to reach half-maximal degradation (DC50). In assay [2], the midpoint of inhibition, the IC50, lay at 54.9 nM.
Consider `Cc1nn(C2CCC(=O)NC2=O)c2cccc(N3CCN(C[C@H]4CC[C@H](N5Cc6cc(NC(=O)c7cnn8cccnc78)c(N7CCOCC7)cc6C5=O)CC4)CC3)c12` (stereo partly shown) [TM-58], for which the IC50 in assay [1] was 3.57 nM; in assay [2] it was 3.53 nM.
With `Cc1nn(C2CCC(=O)NC2=O)c2cccc(N3CCC(CN4CCC(N5Cc6cc(NC(=O)c7cnn8cccnc78)c(N7CCO[C@H](C)C7)cc6C5=O)CC4)CC3)c12` (stereo partly shown) [TM-69], in assay [2], the IC50 was 22.9 nM.
`Cc1nn(C2CCC(=O)NC2=O)c2cccc(N3CCCN(C[C@H]4CC[C@H](n5cc6cc(NC(=O)c7cnn8cccnc78)c(N(C)C)cc6n5)CC4)CC3)c12` (stereo partly shown) [TM-96]: the DC50 in assay [3] is 0.58 nM. The compound also came in with an IC50 in assay [2] of 7.18 nM.
For the compound `Cc1nn(C2CCC(=O)NC2=O)c2cccc(N3CCN(C[C@H]4CC[C@H](n5cc6cc(NC(=O)c7cnn8cccnc78)c(C(F)F)cc6n5)CC4)CC3)c12` (stereo partly shown) [TM-49], in assay [2], the midpoint of inhibition, the IC50, lay at 16.5 nM. In other words, the double-digit nanomolar range.
As to `COc1cc2nn([C@H]3CC[C@H](CN4CCN(c5cccc6c5c(C)nn6C5CCC(=O)NC5=O)CC4)CC3)cc2cc1NC(=O)c1cnn2ccc(N3CCOCC3)nc12` (stereo partly shown) [TM-28], the IC50 in assay [1] stood at 23.3 nM.
In assay [2], `Cc1nn(C2CCC(=O)NC2=O)c2cccc(N3CCN(C[C@H]4CC[C@H](N5Cc6cc(NC(=O)c7cnn8cccnc78)c(N(C)C)cc6C5=O)CC4)CC3)c12` (stereo partly shown) [TM-65] yielded an IC50 of 7.15 nM.
For `Cc1nn(C2CCC(=O)NC2=O)c2cccc(C3CCN(CC4CCC(n5cc6cc(NC(=O)c7cnn8cccnc78)c(N7CCOCC7)cc6n5)CC4)CC3)c12` (stereo not shown) [TM-26], the IC50 in assay [2] was determined as 12.2 nM.
Still for that read-out and setting: to `Cc1nn(C2CCC(=O)NC2=O)c2cccc(N3CCN(C[C@H]4CC[C@H](n5cc6cc(NC(=O)c7cnn8cccnc78)c(N7C[C@@H]8C[C@H]7CO8)cc6n5)CC4)CC3)c12` (stereo partly shown) [TM-45] belongs 5.48 nM.
Compound `Cc1nn(C2CCC(=O)NC2=O)c2ccnc(N3CCC4(CC3)CN(C[C@H]3CC[C@H](n5cc6cc(NC(=O)c7cnn8cccnc78)c(N(C)C)cc6n5)CC3)C4)c12` (stereo partly shown) [TM-113] showed a DC50 in assay [3] of 1.06 nM. In assay [2], this compound registered an IC50 of 0.62 nM.
As for `Cc1nn(C2CCC(=O)NC2=O)c2cccc(N3CC4CN(C[C@H]5CC[C@H](n6cc7cc(NC(=O)c8cnn9cccnc89)c(N8CCOC9(CC9)C8)cc7n6)CC5)CC4C3)c12` (stereo partly shown) [TM-48], the IC50 in assay [2] came to 47.8 nM. This counts as double-digit nanomolar.
On to `Cc1nn(C2CCC(=O)NC2=O)c2cccc(N3CCC(CN4CCC(n5cc6cc(NC(=O)c7cnn8cccnc78)c(N7CCO[C@H](C)C7)cc6n5)CC4)CC3)c12` (stereo partly shown) [TM-72], for which, in assay [2], the IC50 was 6.82 nM.
The same measure, in the same setting: under `COc1cc2nn([C@H]3CC[C@H](CN4CCN(c5cccc6c5c(C)nn6C5CCC(=O)NC5=O)CC4)CC3)cc2cc1NC(=O)c1cnn2cccnc12` (stereo partly shown) [TM-30] stands 3.69 nM.
The same measure, in the same setting: under `Cc1nn(C2CCC(=O)NC2=O)c2cccc(N3CCN(C[C@H]4CC[C@H](n5cc6cc(NC(=O)c7cnn8cccnc78)c(N7CCCOCC7)cc6n5)CC4)CC3)c12` (stereo partly shown) [TM-79] stands 39 nM; under `COc1cc2nn([C@H]3CC[C@H](CN4CC5CN(c6cccc7c6c(C)nn7C6CCC(=O)NC6=O)CC5C4)CC3)cc2cc1NC(=O)c1cnn2cccnc12` (stereo partly shown) [TM-37], 4.99 nM.
Regarding `Cc1nn(C2CCC(=O)NC2=O)c2cccc(N3CCN(C[C@H]4CC[C@H](n5cc6cc(NC(=O)c7cnn8cccnc78)c(N7CCO[C@H](C)C7)cc6n5)CC4)CC3)c12` (stereo partly shown) [TM-54], the IC50 in assay [1] is 4.26 nM; in assay [2] it was 6.29 nM.
Regarding `COc1cc2nn([C@H]3CC[C@H](CN4CCN(c5cccc6c5c(C)nn6C5CCC(=O)NC5=O)CC4)CC3)cc2cc1NC(=O)c1cccc(C(F)(F)F)n1` (stereo partly shown) [TM-29], in assay [1], the IC50 is 56.3 nM.
In assay [2], `Cc1nn(C2CCC(=O)NC2=O)c2cccc(N3CCC(CN4CCC(n5cc6cc(NC(=O)c7cnn8cccnc78)c(N(C)C)cc6n5)CC4)CC3)c12` (stereo not shown) [TM-71] gave an IC50 of 24.9 nM. This counts as double-digit nanomolar.
`Cc1nn(C2CCC(=O)NC2=O)c2cccc(N3CC4CN(C[C@H]5CC[C@H](n6cc7cc(NC(=O)c8cnn9cccnc89)c(N8C[C@@H]9C[C@H]8CO9)cc7n6)CC5)CC4C3)c12` (stereo partly shown) [TM-46]: 46.8 nM corresponded to half-maximal inhibition in assay [1] (IC50).
On to `COc1cc2nn([C@H]3CC[C@H](CN4CCN(c5cccc6c5c(C)nn6C5CCC(=O)NC5=O)CC4)CC3)cc2cc1NC(=O)c1cccc(C)n1` (stereo partly shown) [TM-32], for which the IC50 in assay [2] was 22.2 nM. That is a double-digit nanomolar value.
Turning to `COc1cc2nn([C@H]3CC[C@H](CN4CCC(c5cccc6c5c(C)nn6C5CCC(=O)NC5=O)CC4)CC3)cc2cc1NC(=O)c1cnn2ccc(N3CCOCC3)nc12` (stereo partly shown) [TM-27], the IC50 in assay [1] is 46.8 nM; in assay [2], 9.53 nM.
Consider `Cc1nn(C2CCC(=O)NC2=O)c2cccc(N3CCC(CN4CCC(n5cc6cc(NC(=O)c7cnn8cccnc78)c(N7CCCOCC7)cc6n5)CC4)CC3)c12` (stereo not shown) [TM-82], for which, in assay [2], half-maximal inhibition (IC50) was put at 36.5 nM.

The IC50 is the concentration at which inhibition is half-maximal. As usually defined, the DC50 is the concentration at which degradation of the target reaches its halfway point. Read a high DC50 as a less potent degrader.
